Source: ChEMBL document CHEMBL4196005, “Novel butanehydrazide derivatives of purine-2,6-dione as dual PDE4/7 inhibitors with potential anti-inflammatory activity: Design, synthesis and biological evaluation” (Eur J Med Chem, 2018)
Calls of active or inactive are those of the source. No cut-off for these calls is given here.

How the values were obtained:
[1] = biological target: T1, High affinity 3',5'-cyclic-AMP phosphodiesterase 7A (Homo sapiens, UniProt Q13946); assay: Inhibition of human recombinant FLAG-tagged PDE7A expressed in African green monkey COS7 cells using [3H]cAMP as substrate after 30 mins by scintillation counting analysis; assay type: cell-based
[2] = Inhibition of guinea pig PDE4 using [3H]cAMP as substrate after 30 mins
[3] = biological target: T1, High affinity 3',5'-cyclic-AMP phosphodiesterase 7A; assay: Inhibition of human GST-tagged PDE7A expressed in baculovirus infected Sf9 insect cells using cAMP as substrate after 10 mins by PDE-Glo Phosphodiesterase Assay
[4] = biological target: 3',5'-cyclic-AMP phosphodiesterase 4B (Homo sapiens, UniProt Q07343); assay: Inhibition of human GST-tagged PDE4B expressed in baculovirus infected Sf9 insect cells using cAMP as substrate after 10 mins by PDE-Glo Phosphodiesterase Assay
[5] = Inhibition of PDE7 in human HUT78 cell lysate using cAMP as substrate after 20 mins by scintillation proximity assay
[6] = Inhibition of PDE4 in human HUT78 cell lysate using cAMP as substrate after 20 mins by scintillation proximity assay
[7] = test system: Rattus norvegicus; assay: Antiinflammatory activity in albino Wistar rat assessed as inhibition of LPS-induced TNFalpha production in plasma at 50 mg/kg, ip after 1 hr by ELISA; assay type: functional, organism-based
[8] = test system: Rattus norvegicus; assay: Antiinflammatory activity in albino Wistar rat assessed as inhibition of LPS-induced TNFalpha production in plasma at 50 mg/kg, ip after 1.5 hrs by ELISA relative to control; assay type: functional
[9] = test system: Rattus norvegicus; assay: Antiinflammatory activity in albino Wistar rat assessed as inhibition of LPS-induced TNFalpha production in plasma at 50 mg/kg, ip after 2 hrs by ELISA; assay type: functional, organism-based
[10] = Inhibition of human recombinant His-tagged PDE7 expressed in baculovirus infected Sf9 insect cells using [3H]-cAMP as substrate after 60 mins by scintillation proximity assay
[11] = Inhibition of PDE4 (unknown origin) using [3H]-cAMP as substrate after 60 mins by scintillation proximity assay; set-up: species or system Homo sapiens
[12] = test system: Mus musculus; assay: In vivo inhibition of PDE4 in Balb/c mouse assessed as plasma cAMP levels at 100 mg/kg, po after 20 mins by RIA (reference value: 80.5 pmol/ml); assay type: functional
[13] = biological target: 3',5'-cyclic-AMP phosphodiesterase 4D (Homo sapiens, UniProt Q08499); assay: Inhibition of PDE4D3 (unknown origin) using [3H]cAMP as substrate preincubated for 5 mins followed by substrate addition and measured after 15 mins by scintillation proximity assay
[14] = biological target: T1, High affinity 3',5'-cyclic-AMP phosphodiesterase 7A; assay: Inhibition of PDE7A1 (unknown origin) expressed in baculovirus infected insect cells using [3H]cAMP as substrate preincubated for 5 mins followed by substrate addition and measured after 15 mins by scintillation proximity assay
[15] = Inhibition of human PDE4 using [3H]-cAMP as substrate after 15 mins by scintillation proximity assay
[16] = biological target: T1, High affinity 3',5'-cyclic-AMP phosphodiesterase 7A; assay: Inhibition of human C-terminal FLAG-tagged PDE7A expressed in baculovirus infected Sf9 cells using [3H]-cAMP as substrate after 15 mins by scintillation proximity assay

T1 sequence (Q13946 whole entry): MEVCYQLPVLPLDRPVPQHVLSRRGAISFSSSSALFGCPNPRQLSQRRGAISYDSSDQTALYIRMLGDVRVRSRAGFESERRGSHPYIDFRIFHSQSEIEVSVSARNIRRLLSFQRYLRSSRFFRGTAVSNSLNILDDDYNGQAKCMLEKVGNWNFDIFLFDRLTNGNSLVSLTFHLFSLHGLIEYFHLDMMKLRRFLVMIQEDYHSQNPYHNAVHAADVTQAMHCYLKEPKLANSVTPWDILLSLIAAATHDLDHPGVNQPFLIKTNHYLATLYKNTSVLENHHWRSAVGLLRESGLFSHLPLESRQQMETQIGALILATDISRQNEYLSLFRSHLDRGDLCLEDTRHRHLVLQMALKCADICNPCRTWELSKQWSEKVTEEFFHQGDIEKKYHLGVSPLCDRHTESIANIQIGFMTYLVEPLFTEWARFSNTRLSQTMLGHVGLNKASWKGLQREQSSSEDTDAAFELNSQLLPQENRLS
3',5'-cyclic-AMP phosphodiesterase 4B, sequence (Q07343 whole entry): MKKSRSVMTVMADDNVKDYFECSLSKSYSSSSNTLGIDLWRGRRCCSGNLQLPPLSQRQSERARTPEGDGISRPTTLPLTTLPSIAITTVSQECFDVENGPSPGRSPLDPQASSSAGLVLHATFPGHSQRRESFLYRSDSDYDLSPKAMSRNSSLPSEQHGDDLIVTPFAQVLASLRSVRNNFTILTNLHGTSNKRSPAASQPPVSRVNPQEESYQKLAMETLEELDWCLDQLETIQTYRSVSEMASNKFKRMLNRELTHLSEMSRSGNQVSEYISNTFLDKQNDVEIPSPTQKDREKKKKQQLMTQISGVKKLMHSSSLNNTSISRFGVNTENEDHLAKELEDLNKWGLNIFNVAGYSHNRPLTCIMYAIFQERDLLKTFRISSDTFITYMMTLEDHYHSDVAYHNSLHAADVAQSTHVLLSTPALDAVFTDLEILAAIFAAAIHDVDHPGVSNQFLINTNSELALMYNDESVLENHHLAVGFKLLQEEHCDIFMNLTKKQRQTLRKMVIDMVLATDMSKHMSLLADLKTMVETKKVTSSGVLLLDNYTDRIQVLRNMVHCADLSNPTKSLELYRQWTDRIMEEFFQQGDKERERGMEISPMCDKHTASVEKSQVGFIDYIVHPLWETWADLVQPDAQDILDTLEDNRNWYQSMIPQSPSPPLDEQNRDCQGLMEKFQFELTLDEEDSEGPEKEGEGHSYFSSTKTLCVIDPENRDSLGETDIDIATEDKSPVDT
3',5'-cyclic-AMP phosphodiesterase 4D, sequence (Q08499 whole entry): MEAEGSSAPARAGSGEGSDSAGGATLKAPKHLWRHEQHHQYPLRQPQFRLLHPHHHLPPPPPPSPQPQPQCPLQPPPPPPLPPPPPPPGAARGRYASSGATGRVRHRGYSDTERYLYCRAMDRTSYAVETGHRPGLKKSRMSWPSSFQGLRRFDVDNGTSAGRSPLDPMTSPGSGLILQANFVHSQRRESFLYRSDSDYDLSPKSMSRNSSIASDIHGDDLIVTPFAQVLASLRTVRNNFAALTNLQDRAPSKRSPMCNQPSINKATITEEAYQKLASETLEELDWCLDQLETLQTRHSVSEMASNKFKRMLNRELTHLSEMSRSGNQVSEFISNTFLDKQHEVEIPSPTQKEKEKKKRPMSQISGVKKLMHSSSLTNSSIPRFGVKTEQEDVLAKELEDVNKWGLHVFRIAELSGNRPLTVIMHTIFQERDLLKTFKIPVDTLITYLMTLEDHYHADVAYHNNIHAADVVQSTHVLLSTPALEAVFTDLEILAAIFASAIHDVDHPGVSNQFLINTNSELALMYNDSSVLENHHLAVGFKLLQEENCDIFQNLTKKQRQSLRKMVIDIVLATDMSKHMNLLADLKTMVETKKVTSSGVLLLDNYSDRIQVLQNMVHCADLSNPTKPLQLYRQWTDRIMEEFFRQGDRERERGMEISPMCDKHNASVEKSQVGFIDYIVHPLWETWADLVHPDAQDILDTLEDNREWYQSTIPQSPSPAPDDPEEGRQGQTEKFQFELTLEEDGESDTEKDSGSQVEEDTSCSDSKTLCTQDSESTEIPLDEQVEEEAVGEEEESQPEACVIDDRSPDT

Structure (SMILES)	IC50 [3] [µM]	IC50 [4] [µM]	other results
CCOc1cc2cc(CO)c(CO)c(-c3ccnc(-n4nc(-c5cccnc5)c5ccccc5c4=O)c3)c2cc1OCC	–	–	IC50 [1]: 1.7 µM; IC50 [2]: 0.00013 µM
COc1ccc(C2CNC(=O)C2)cc1OC1CCCC1 (stereo not given) [ROLIPRAM]	> 200	–	–
CCOc1nc2c(c(=O)n(C)c(=O)n2C)n1CCCC(=O)N/N=C/c1ccccc1	48.9	37	–
Cn1c(=O)c2c(nc(NCc3ccccc3)n2CCCC(=O)N/N=C/c2ccc(O)cc2O)n(C)c1=O	116	5.5	–
CCOC(=O)c1sc(Nc2nc(N3CCC(O)CC3)cc(N3CCC(O)CC3)n2)nc1C	–	–	IC50 [5]: 0.06 µM; IC50 [6]: 3.2 µM
CC(C)Cn1c(=O)n(C)c(=O)c2[nH]cnc21 [ISOBUTYLMETHYLXANTHINE]	85.6	28.2	–
COc1ccc(/C=N/NC(=O)CCCn2c(NCc3ccccc3)nc3c2c(=O)n(C)c(=O)n3C)c(O)c1	52.8	44	–
Cn1c(=O)c2c(nc(NCc3ccco3)n2CCCC(=O)N/N=C/c2ccccc2O)n(C)c1=O	> 200	12.5	–
CCOC(=O)c1sc(Nc2nc(NCc3cc(OC)c(OC)c(OC)c3)cc(N3CCC(N(C)C)CC3)n2)nc1C	–	–	IC50 [5]: 0.003 µM; IC50 [6]: 3 µM
CCC(C)(O)c1oc(=O)c2ccccc2c1-c1ccc(OC)c(OC2CCCC2)c1 (stereo not given)	–	–	IC50 [10]: 3.1 µM; IC50 [11]: 3.8 µM
Cn1c(=O)c2nc[nH]c2n(C)c1=O.O [THEOPHYLLINE]	–	> 200	Activity [12]: 296.9 pmol/mL
COc1ccc(C2=NN(C3CCCC3)C(=O)C3CC=CCC23)cc1Cl (stereo not given)	–	–	IC50 [13]: 0.00078 µM; IC50 [14]: 0.018 µM
Cn1c(=O)c2c(ncn2CCCC(=O)N/N=C/c2ccccc2O)n(C)c1=O	> 200	> 200	–
COc1ccc(-c2cc3c(n2-c2ccc(S(=O)(=O)Nc4nc(C)cc(C)n4)cc2)CCC(N2CCN(C)CC2)C3)cc1C (stereo not given)	–	–	IC50 [15]: 0.63 µM; IC50 [16]: 0.014 µM
CCOc1nc2c(c(=O)n(C)c(=O)n2C)n1CCCC(=O)N/N=C/c1ccc(O)cc1O	141	16.2	–
COc1ccc(/C=N/NC(=O)CCCn2c(NCc3ccco3)nc3c2c(=O)n(C)c(=O)n3C)c(O)c1	69.8	70.8	–
Cc1ccc([N+](=O)[O-])cc1S(=O)(=O)N(C)C	2.1	175	–
CCCOc1nc2c(c(=O)n(C)c(=O)n2C)n1CCCC(=O)N/N=C/c1ccccc1O	11.7	31.1	–
CCOc1nc2c(c(=O)n(C)c(=O)n2C)n1CCCC(=O)N/N=C/c1ccc(OC)cc1O	> 200	> 200	–

Continued, in another order:

IC50 [3] [µM]	IC50 [4] [µM]	Structure (SMILES)	other results
27.6	7.9	CCOc1nc2c(c(=O)n(C)c(=O)n2C)n1CCCC(=O)N/N=C/c1ccccc1O	–
56.1	116	CCCOc1nc2c(c(=O)n(C)c(=O)n2C)n1CCCC(=O)N/N=C/c1ccc(O)cc1O	–
8.1	1.9	Cn1c(=O)c2c(nc(NCc3ccccc3)n2CCCC(=O)N/N=C/c2ccc(O)c(O)c2O)n(C)c1=O	inhibition [7]: inactive; inhibition in vivo at 50 mg/kg [8]: 53%; inhibition [9]: inactive
10.5	4.4	Cn1c(=O)c2c(nc(NCc3ccco3)n2CCCC(=O)N/N=C/c2ccc(O)cc2O)n(C)c1=O	–
> 200	7.7	Cn1c(=O)c2c(nc(NCc3ccccn3)n2CCCC(=O)N/N=C/c2ccccc2O)n(C)c1=O	–
3.2	1.4	Cn1c(=O)c2c(nc(NCCc3ccccc3)n2CCCC(=O)N/N=C/c2ccc(O)c(O)c2O)n(C)c1=O	inhibition in vivo at 50 mg/kg [8]: 84%
3.8	7.4	Cn1c(=O)c2c(nc(NCc3ccco3)n2CCCC(=O)N/N=C/c2ccc(O)c(O)c2O)n(C)c1=O	inhibition in vivo at 50 mg/kg [8]: 88%
92.9	51.8	CCCOc1nc2c(c(=O)n(C)c(=O)n2C)n1CCCC(=O)N/N=C/c1ccccc1	–
9.5	1.8	Cn1c(=O)c2c(nc(NCc3ccccn3)n2CCCC(=O)N/N=C/c2ccc(O)c(O)c2O)n(C)c1=O	–
> 200	> 200	Cn1c(=O)c2c(ncn2CCCC(=O)N/N=C/c2ccc(O)cc2O)n(C)c1=O	–
> 200	> 200	CCOc1nc2c(c(=O)n(C)c(=O)n2C)n1CCCC(=O)N/N=C/c1ccccc1OC	–
89.3	47.8	CCCOc1nc2c(c(=O)n(C)c(=O)n2C)n1CCCC(=O)N/N=C/c1ccc(OC)cc1O	–
7.3	26.9	Cn1c(=O)c2c(nc(NCCc3ccccc3)n2CCCC(=O)N/N=C/c2ccccc2O)n(C)c1=O	–
33.6	> 200	Cn1c(=O)c2c(nc(NCc3ccccc3)n2CCCC(=O)N/N=C/c2ccccc2O)n(C)c1=O	–
